Experiments:
FGFR4 = FGFR4 (Homo sapiens, UniProt P22455); experiment: In vitro biochemical kinase analysis of FGFR4 (HTRF KinEASE-TK); settings: HTRF kinase assay
Procedure: In Vitro Biochemical Kinase Analysis of FGFR4
FGFR4 protein kinase detection kit was purchased from Cisbio (HTRF KinEASE-TK kit). Prepare 1× kinase reaction buffer. Transfer 10 nL of a diluted compound to each well of a reaction plate (784075, Greiner) with an Echo 550, and seal the plate with sealing film. The reaction plate was centrifuged at 1000 g for 1 minute. Prepare 2×FGFR4 using 1× kinase reaction buffer, add 5 μL of kinase to each well of the reaction plate, seal the plate, centrifuge at 1000 g for 30 seconds, and incubate it at room temperature for 10 minutes. Prepare a mixture of 2×TK-substrate-biotin and ATP using 1× kinase reaction buffer, add 5 μL of TK-substrate-biotin/ATP mixture to the reaction plate, seal the plate with sealing film, centrifuge at 1000 g for 30 seconds, and react at room temperature for 40 minutes. Prepare 2×Sa-XL 665 and TK-antibody-Cryptate mixture using HTRF detection buffer, add 10 μL Sa-XL 665 and TK-antibody-Cryptate mixture to each well, centrifuge at 1000 g for 30 seconds, and react at room temperature for 1 hour. Envision 2104 read fluorescence signals at 615 nm (Cryptate) and at 665 nm (XL665). IC50 of the compound was calculated using the GraphPad nonlinear fitting formula.

Hep 3B hepatoma cells = experiment: In vitro cell proliferation assay (CellTiter-Glo, CTG), Hep 3B; format: cell-based, human; settings: Hep 3B cells
Procedure: (§1) In Vitro Cell Proliferation Assay of FGFR4 (CellTiter-Glo Luminescent Cell Viability Assay, CTG Assay)
(§2) Hep 3B hepatoma cells were purchased from Cell Resource Center of Peking Union College, and HuH-7 hepatoma cells were purchased from Shanghai Biological Technology Co., Ltd. enzyme research. The cells were prepared at a concentration of 3×10^4/mL, which was then added with 100 μL to each well of a 96-well transparent flat-bottom black-walled plate to make 3000 cells per well. Incubate overnight at 37° C. in 5% CO2 incubator. Dilute a compound and add it to the wells having the cells, then add cell culture medium to 200 μL per well. Put in CO2 incubator for incubation. After 96 hours, 100 μL of culture medium was removed from each well, 100 μL of CTG was added, and the 96-well plate was placed on a shaker for 10 minutes, and placed in the shade at room temperature for 45 minutes. Data was read out by SoftMax Pro i3X Microplate Reader of MD, analyzed by the software GraphPad Prism 5.0, and S-shaped dose-response curve was drawn, then the EC50 values were calculated.

HuH-7 hepatoma cells = experiment: In vitro cell proliferation assay (CellTiter-Glo, CTG), HuH-7; format: cell-based; settings: HuH-7 cells
Procedure: as §1, §2

Hep 3B tumor models = experiment: In vivo efficacy test, Hep3B subcutaneous xenograft in nude mice; parameters: species or system Nu/Nu nude mice; settings: for tumor inhibition rate: gavage, twice a day, Hep3B xenograft, day 16
Procedure: Human hepatoma Hep3B cells and cell culture medium (EMEM) were purchased from ATCC. Antibiotics (penicillin, streptomycin) and Tryspin-EDTA were purchased from Gibco. Phosphate buffered saline (PBS) and fetal bovine serum (FBS) were purchased from Hyclone. Matrigel was purchased from Corning. Nu/Nu nude mice 6-8 weeks, female, purchased from Vitalriver.
Human hepatoma Hep3B cells were cultured in monolayer in vitro, and cultured in EMEM with 10% fetal bovine serum, 100 U/mL penicillin and 100 μg/mL streptomycin, 37° C., 5% CO2. Trypsin-EDTA was used twice a week for routine digestion and passage. When cell saturation reached 80%-90%, cells were harvested, counted, and seeded. 0.2 mL of 10×10^6 Hep3B cells were subcutaneously seeded on the right back of each nude mouse (PBS:Matrigel=1:1). Administration was started when the average tumor volume reached 128 mm^3.
The mice were administered by gavage, twice a day. Control group was given pure water. Three treatment groups were administered Compound 4, at the doses of 10 mg/kg, 30 mg/kg, and 60 mg/kg, respectively. Tumors were measured and weighed twice a week. By day 16, the average tumor volume in the control group had reached the humanitarian endpoint (2000 mm^3), and the experiment was terminated.
The data was processed by software such as Excel. […] The tumor inhibition effect was obvious in Hep 3B tumor models.

FGFR4, sequence (P22455 22-802): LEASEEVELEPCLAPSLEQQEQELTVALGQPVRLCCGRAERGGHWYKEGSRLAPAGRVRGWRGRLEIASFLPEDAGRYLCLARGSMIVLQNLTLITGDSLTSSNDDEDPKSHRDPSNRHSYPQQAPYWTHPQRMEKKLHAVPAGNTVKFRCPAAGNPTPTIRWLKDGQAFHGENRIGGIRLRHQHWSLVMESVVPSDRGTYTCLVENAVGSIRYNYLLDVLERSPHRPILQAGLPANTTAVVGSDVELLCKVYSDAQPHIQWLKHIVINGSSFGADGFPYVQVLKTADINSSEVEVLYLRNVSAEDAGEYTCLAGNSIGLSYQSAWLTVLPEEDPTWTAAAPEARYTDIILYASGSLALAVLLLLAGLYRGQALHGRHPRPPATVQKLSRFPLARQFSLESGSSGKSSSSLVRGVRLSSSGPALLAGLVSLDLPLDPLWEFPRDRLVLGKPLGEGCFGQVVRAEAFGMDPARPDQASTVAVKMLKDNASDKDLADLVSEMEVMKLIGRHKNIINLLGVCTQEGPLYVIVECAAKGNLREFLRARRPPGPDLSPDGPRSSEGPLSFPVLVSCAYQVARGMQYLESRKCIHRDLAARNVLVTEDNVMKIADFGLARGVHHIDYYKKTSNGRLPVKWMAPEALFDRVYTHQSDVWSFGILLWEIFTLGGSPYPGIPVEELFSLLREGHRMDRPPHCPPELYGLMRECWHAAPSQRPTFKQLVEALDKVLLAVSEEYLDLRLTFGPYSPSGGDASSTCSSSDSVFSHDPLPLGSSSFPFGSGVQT

Row | Compound | IC50 (FGFR4) [nM] | EC50 (Hep 3B hepatoma cells; Homo sapiens, Hep3B, 96 h) [nM] | EC50 (HuH-7 hepatoma cells; Homo sapiens, Huh-7, 96 h) [nM] | EC50 (Hep 3B hepatoma cells; 96 hours) [nM] | EC50 (HuH-7 hepatoma cells; 96 hours) [nM] | tumor inhibition rate (Hep 3B tumor models; 30 mg/kg) [%] | tumor inhibition rate (Hep 3B tumor models; 60 mg/kg) [%] | tumor inhibition effect (Hep 3B tumor models; Hep 3B tumor models, in words)
1 | COCCNc1cc(NC(=O)N2c3nc(C=O)c(CN4CCN(C)CC4=O)cc3C3(F)CC2C3)ncc1C#N [Compound 4, N-(5-cyano-4-((2-methoxyethyl)amino)pyridin-2-yl)-4-fluoro-7-formyl-6-((4-methyl-2-oxopiperazin-1-yl)methyl)-3,4-dihydro-2,4-methylene-1,8-naphthyridine-1(2H)-carboxamide] | 0.7 | 6.4 | 12 |  |  | 78 | 97 | obvious
2 | COCCNc1cc(NC(=O)N2c3nc(C=O)c(CN(C)C(=O)CN(C)C)cc3C3(F)CC2C3)ncc1C#N [Compound 8] | 2.6 | 11.8 | 28 |  |  |  |  | 
3 | COC[C@@H](C)Nc1cc(NC(=O)N2c3nc(C=O)c(CN4CCN(C)CC4=O)cc3C3(F)CC2C3)ncc1C#N [Compound 6, (R)—N-(5-cyano-4-((1-methoxyprop-2-yl)amino)pyridin-2-yl)-4-fluoro-7-formyl-6-((4-methyl-2-oxopiperazin-1-yl)methyl)-3,4-dihydro-2,4-methylene-1,8-naphthyridine-1(2H)-carboxamide] | 2.1 | 3.3 | 5.9 |  |  |  |  | 

Further compounds by falling IC50 (FGFR4), results first:

Row | IC50 (FGFR4) [nM] | EC50 (Hep 3B hepatoma cells; Homo sapiens, Hep3B, 96 h) [nM] | EC50 (HuH-7 hepatoma cells; Homo sapiens, Huh-7, 96 h) [nM] | EC50 (Hep 3B hepatoma cells; 96 hours) [nM] | EC50 (HuH-7 hepatoma cells; 96 hours) [nM] | Compound | tumor inhibition rate (Hep 3B tumor models; 30 mg/kg) [%] | tumor inhibition rate (Hep 3B tumor models; 60 mg/kg) [%] | tumor inhibition effect (Hep 3B tumor models; Hep 3B tumor models, in words)
4 | 10.9 |  |  | 39 | 95.2 | COC1CCCC1Nc1cc(NC(=O)N2c3nc(C=O)c(CN4CCN(C)CC4=O)cc3C3(F)CC2C3)ncc1C#N (single isomer, unassigned) [Compound 12-P2, N-(5-cyano-4-(((cis)-2-methoxycyclopentyl)amino)pyridin-2-yl)-4-fluoro-7-formyl-64(4-methyl-2-oxopiperazin-1-yl)methyl)-3,4-dihydro-2,4-methylene-1,8-naphthyridine-1(2H)-carboxamide] |  |  | 
5 | 0.6 | 1.2 | 24 |  |  | N#Cc1cnc(NC(=O)N2c3nc(C=O)ccc3C3(F)CC2C3)cc1N[C@@H]1CCC[C@H]1O (relative stereo) [Compound 20, N-(5-cyano-4-(((trans)-2-hydroxycyclopentyl)amino)pyridin-2-yl)-4-fluoro-7-formyl-3,4-dihydro-2,4-methylene-1,8-naphthyridine-1(2H)-carboxamide] |  |  | 

— patent US12344611B2, “Bridged cycloformylpyridine derivatives and uses thereof” (BroadenBio Co., Ltd., priority 2019, dated 2025)
